Measurements published in ChEMBL document CHEMBL1158935, “New Polyhydroxy Sterols, Dysidamides, and a Dideoxyhexose from the Sponge Dysidea herbacea” (J Nat Prod, 1991).
Converted amounts (≈) assume the structure as drawn.

These molecules were tested on P388 (assay: Cytotoxicity against mouse P388 cells).
Format: functional, cell-based

Q: For `C=C(CC[C@@H](C)[C@H]1CC[C@H]2C3=C[C@@H](OC(C)=O)[C@@]4(O)C[C@@H](OC(C)=O)CC[C@]4(C)[C@@]3(O)[C@H](OC(C)=O)C[C@]12C)C(C)C`, which IC50 is on record?
A: Its IC50 is 6.5 µg/mL (≈ 11 µM).

Q: With `C=C(CC[C@@H](C)[C@H]1CC[C@H]2C3=C[C@@H](OC(C)=O)[C@@]4(O)C[C@@H](OC(C)=O)CC[C@]4(C)[C@H]3CC[C@]12C)C(C)C` as the molecule, how does the IC50 read?
A: Its IC50 is 1.46 µg/mL (≈ 2.84 µM).

Q: With `C=C(CC[C@@H](C)[C@H]1CC[C@H]2C3=C[C@H](OC(C)=O)[C@@]4(O)C[C@@H](OC(C)=O)CC[C@]4(C)[C@@]3(O)[C@H](OC(C)=O)C[C@]12C)C(C)C` as the molecule, how does the IC50 read?
A: The IC50 was 4.78 µg/mL (≈ 8.12 µM).
